Experimental data reported in US20160000750A1, “COMBINATION OF EGCG OR METHYLATED EGCG AND A PDE INHIBITOR” (KYUSHU UNIVERSITY, NATIONAL UNIVERSITY CORPORATION, priority 2010, published 2016).

System: human acute myeloid leukemia cell line, HL60
Test: Trypan blue cell viability and viable cell count, HL60
Type: cell-based
Details: vardenafil 5 μM, EGCG 5 μM added after 3 hours, 96 hours
Procedure: A human multiple myeloma cell line, U266, was subcultured in an RPMI 1640 medium (NISSUI PHARMACEUTICAL Co. LTD., Tokyo) supplemented with 10% fetal calf serum (FCS) (BIOLOGICAL INDUSTRIES) at 37° C. under vapor-saturated 5% CO2 conditions. The cells were cultured in the logarithmic growth phase. A human acute myeloid leukemia cell line, HL60, was subcultured in an RPMI 1640 medium supplemented with 10% fetal calf serum (FCS) at 37° C. under vapor-saturated 5% CO2 conditions. The cells were cultured in the logarithmic growth phase. […]
The plate was returned to the incubator immediately after the addition of EGCG, followed by culturing for 96 hours. […] After 10 minutes, the number of the cells was counted with a hemocytometer (Becton, Dickinson and Company). Unstained cells were deemed as viable cells, and the cell viability was determined as a ratio of the number of unstained cells in trypan blue staining to the total number of cells. […]

(−)-epigallocatechin-3-O-gallate [EGCG]
cell viability (cell-killing activity): any cytotoxicity was not observed
